{"source": "patent US8802731B2", "about": "“N-acetyl beta alanine methods of use” (ThermoLife International, LLC, priority 2011, dated 2014)", "key": {"mice": {"system": "mice", "conditions": "cited from earlier work"}, "fructose-fed rats": {"system": "fructose-fed rats", "conditions": "preliminary experiment; cited from earlier work"}, "solubility in water": {"test": "solubility in water", "assay_type": "physicochemical", "conditions": "found by applicants"}, "[1]": {"test": "solubility in organic solvents", "assay_type": "physicochemical"}, "subjects [2]": {"system": "subjects", "test": "paresthesia after administration of N-acetyl beta alanine to subjects", "assay_type": "in vivo, human", "description": "For the exemplary purposes of this disclosure, the Applicants have administered N-acetyl beta alanine to over 30 different subjects in doses ranging from 1 to even 10 grams."}, "well trained athletes": {"system": "well trained athletes", "test": "effects reported by well trained athletes given N-acetyl-beta alanine", "assay_type": "in vivo, human", "conditions": "5 grams per day x1, 10 well trained athletes, self-report", "description": "For the exemplary purposes of this disclosure, the Applicants have also administered N-acetyl-beta alanine at a dose of 5 grams per day ×1 in 10 subjects, all of them well trained athletes that had in the past used beta alanine and were well aware of it's benefits. All of the subjects had not used beta alanine for at least a month. They were asked to report the effects of the “new beta alanine preparation” they were offered."}, "[3]": {"conditions": "described (literature); cited from earlier work"}, "elderly men and women": {"system": "elderly men and women", "conditions": "cited from earlier work"}, "[4]": {"conditions": "single ingested dose; cited from earlier work"}, "[5]": {"conditions": "cited from earlier work"}, "subjects [6]": {"system": "subjects", "conditions": "10 weeks of resistance training with supplementation; cited from earlier work"}, "[7]": {"conditions": "cited from earlier work", "remark": "listed apart in the source"}, "individuals": {"system": "individuals", "conditions": "cited from earlier work"}, "[8]": {"system": "experienced resistance-trained athletes", "conditions": "four weeks of supplementation; cited from earlier work"}}, "data": [{"compound": "NCCS(=O)(=O)O", "note": "[taurine]", "values": [{"measurement": "behavioral effect of supplemented diet", "setting": "mice", "result": "antidepressant-like effect"}]}, {"compound": "NCCC(=O)N[C@@H](Cc1cnc[nH]1)C(=O)O", "note": "[carnosine]", "values": [{"measurement": "diabetes-associated increase in blood pressure", "setting": "fructose-fed rats", "result": "suppressed diabetes-associated increase in blood pressure"}]}, {"compound": "CC(=O)NCCC(=O)O", "note": "[N-acetyl beta alanine, 3-acetamidopropanoic acid]", "values": [{"measurement": "solubility in water", "setting": "solubility in water", "result": 22, "unit": "g/100 mL"}, {"measurement": "solubility in water and organic solvents", "setting": "[1]", "result": "soluble in water and organic solvents"}, {"measurement": "paresthesia", "setting": "subjects [2]; large doses of 5+ grams", "result": "no paresthesia observed"}, {"measurement": "paresthesia or negative feelings described by users", "setting": "subjects [2]; over 30 subjects, doses ranging from 1 to 10 grams", "result": "No paresthesia or negative feelings"}, {"measurement": "rate at which full benefits were exhibited", "setting": "well trained athletes", "result": "full benefits were exhibited at a faster rate"}, {"measurement": "reported effectiveness compared with normal beta-alanine", "setting": "well trained athletes", "result": "improved effectiveness over normal beta-alanine"}]}, {"compound": "NCCC(=O)O", "note": "[beta alanine, β-Alanine]", "values": [{"measurement": "behavioral effect of supplemented diet", "setting": "mice", "result": "anxiolytic-like effect"}, {"measurement": "water solubility", "setting": "[3]", "result": "55-89 grams/100 ml"}, {"measurement": "increase in physical working capacity fatigue threshold", "setting": "elderly men and women; 800 mg x3 per day, elderly (55-92 years)", "result": 28, "unit": "%"}, {"measurement": "physical working capacity / onset of neuromuscular fatigue", "setting": "elderly men and women; ninety days of supplementation, elderly men and women", "result": "may increase physical working capacity by delaying the onset of neuromuscular fatigue"}, {"measurement": "single dose above which symptoms of paresthesia may be observed", "setting": "[4]", "result": "higher than 800 mg"}, {"measurement": "maximal strength or VO2max", "setting": "[5]; in vivo", "result": "does not improve maximal strength or VO2max"}, {"measurement": "onset of neuromuscular fatigue", "setting": "[5]; in vivo", "result": "delay the onset of neuromuscular fatigue"}, {"measurement": "performance in high-intensity exercise", "setting": "[5]; multiple bouts of high-intensity exercise and single bouts lasting more than 60 s", "result": "improvements in performance"}, {"measurement": "increase in Muscle-Carnosine", "setting": "subjects [6]", "result": "12.81+/−7.97 mmol×kg (−1) dry muscle"}, {"measurement": "acidosis due to exercise", "setting": "[7]; 4.8 grams per day", "result": "can attenuate acidosis due to exercise"}, {"measurement": "fall in blood pH during high-intensity exercise", "setting": "[7]; chronic supplementation", "result": "can attenuate the fall in blood pH"}, {"measurement": "aerobic capacity (VO2max)", "setting": "individuals; post supplementation, 28 days", "result": "reduced aerobic capacity"}, {"measurement": "sub-maximal endurance performance (OBLA)", "setting": "individuals; supplementation for 28 days", "result": "enhanced sub-maximal endurance performance by delaying OBLA"}, {"measurement": "muscular endurance during resistance training", "setting": "[8]", "result": "can significantly improve muscular endurance"}]}]}
